In PMC10107299, “Neutralizing the Impact of the Virulence Factor LecA from Pseudomonas aeruginosa on Human Cells with New Glycomimetic Inhibitors” (Angewandte Chemie (International Ed. in English), 2023):

What was measured:
[1] = In vivo pharmacokinetic study in rats; parameters: species or system Sprague-Dawley rats
Description: Encouraged by these promising in vitro results, an in vivo pharmacokinetic study was conducted for H2 and L2 in mice (1 mg kg^−1, i. v.) and in rats for L2 (10 mg kg^−1, i. v.). Compound concentrations were monitored in plasma and urine (Figure 6). H2 and L2 were cleared from mouse plasma within 1 h. Both compounds rapidly reached high concentrations in urine, several orders of magnitude above their respective in vitro LecA binding affinity. In fact, concentrations above the K ds were detected over the entire observation period of 5 h. […] In rats, higher amounts of L2 were detected both in plasma and urine, not solely corresponding to the 10‐fold increased dose. […] Importantly, high levels of L2 were present in rat urine even 24 h after administration. […]
Pharmacokinetic studies in rat
The in vivo part of the study was performed by the CRO Pharmacelsus (Saarbrücken, Germany). For rat in vivo pharmacokinetic studies, male Sprague-Dawley rats (Janvier-Labs, France) with 350 g - 400 g body weight were used. All experimental procedures were approved by and conducted in accordance with the regulations of the local Animal Welfare authorities (Landesamt für Gesundheit und Verbraucherschutz, Abteilung Lebensmittel- und Veterinärwesen, Saarbrücken) and any clinical signs of toxicity and any changes in behavior of the animals were recorded. Food and water were provided ad libitum throughout the study. Rats were provided with a catheter in the jugular vein 2 - 3 days prior to drug administration and blood sampling. According to national animal welfare guidelines, rats were treated once with Carprofen (5 mg/kg) directly after catheterization. Catheter was rinsed daily with K3EDTA. L2 was dissolved in PBS (pH 7.4) and administered i.v. in individual PK studies (N = 3) at 10 mg/kg in a volume of 2 mL/kg. At t = 0 h, rats were placed into metabolic cages for drug administration and immediate collection of urine and faeces samples. Further excretion products were collected during 0 - 2 h, 2 - 4 h, 4 - 8 h and 8 - 24 h. Excreta sample volumes were determined and immediately stored at -80 °C until analysis by LC-MS. 80 µL K3EDTA-treated blood was collected at t = 0.083 h, 0.25 h, 0.5 h, 1 h, 2 h, 4 h, 6 h, 8 h and 24 h post dose and samples were stored on ice until centrifugation (10 minutes at 4500 x g, 4 °C). Plasma was prepared within 45 min after collection, frozen and stored at -80 °C until analysis by LC-MS. […]
clinical signs observed after dosing.
Bioanalysis of pharmacokinetic samples from mice and from rat
First, a calibration curve was prepared by spiking different concentrations of L2 and H2 into mouse plasma, rat plasma or mouse urine (matrix for mouse and rat PK samples) from CD-1 mice. Glipizide was used as an internal standard. In addition, quality control samples (QCs) were prepared for L2 and H2 in plasma and urine. The following extraction procedures were used: 7.5 µl of a plasma sample or 15 µl of a urine sample (calibration samples, QCs or PK samples) was extracted with 35 µl of methanol containing 12.5 ng/ml of glipizide as internal standard for 15 min at 2000 rpm on an Eppendorf MixMate vortex mixer. Then samples were spun down at 15870 x g for 10 min. Supernatants were transferred to standard HPLC-glass vials. Samples from the mouse PK study with H2 in mice and from the rat PK study with L2 were analyzed via HPLC-MS/MS as described in the HPLC-MS analysis section above. PK samples from the mouse PK study with L2 were analyzed using an Agilent 1290 Infinity II HPLC system coupled to an AB Sciex QTrap 7500 mass spectrometer. LC conditions were the same as for the analysis of the samples from the mouse PK study with H2 and from the rat PK study with L2. Mass transitions for controls and compounds are depicted in the following table for the AB Sciex Trap 7500 mass spectrometer.
Peaks of PK samples were quantified using the calibration curve. The accuracy of the calibration curve was determined using QCs independently prepared on different days. […]

[2] = Thermodynamic solubility in TBS/Ca2+ buffer; format: physicochemical
From the text: Next, we quantified the solubility of at least one representative of each new class and of one parent bisacylhydrazone in aqueous media (Table 1).

In the case of `O=C(CCc1ccc(O[C@@H]2O[C@H](CO)[C@H](O)[C@H](O)[C@H]2O)cc1)Nc1ccc(CCc2ccc(NC(=O)CCc3ccc(O[C@@H]4O[C@H](CO)[C@H](O)[C@H](O)[C@H]4O)cc3)cc2S(=O)(=O)O)c(S(=O)(=O)O)c1` [Compound L2], the “L2 in rat urine” value ([1]; 24 h after administration, 10 mg kg^−1 i.v.) is reported as “high levels”, the half-life ([1]; male, Sprague-Dawley, iv, rat plasma, 10 mg kg^−1 i.v., N=3) is reported as 37 ± 12 min and the AUC ([1]; male, Sprague-Dawley, iv, rat plasma, 10 mg kg^−1 i.v., read-out: area under the curve (AUC)) is reported as 19.7 ± 12.8 µM·h. The MRT ([1]; male, Sprague-Dawley, iv, rat plasma, 10 mg kg^−1 i.v., read-out: mean residence time (converted)) was 41 min, the clearance ([1]; male, Sprague-Dawley, plasma, iv, rat, 10 mg kg^−1 i.v.) was 9.84 ± 5 mL/min/kg and the Vd ([1]; male, Sprague-Dawley, plasma, iv, rat, 10 mg kg^−1 i.v., read-out: distribution volume VD) was 0.46 L/kg. The “Time plasma concentration exceeds on-target affinity” value ([1]; rat plasma, 10 mg kg^−1 i.v.) was “at least 6 h”, the “Behavior and clinical signs after dosing” value ([1]; rat, 10 mg/kg i.v.) was “normal behavior” and the solubility ([2]; TBS/Ca2+ buffer, pH 7.4, thermodynamic from solid, aqueous buffer, from solid, read-out: Solubility S (dissolved from solid form in aqueous buffer)) was greater than 1500 µM. For the same compound, the “Increase in solubility versus parent bisacylhydrazones” value ([2]; pH 7.4) was “over 1000 fold” and the solubility thermodynamic ([2]; pH 7.4, aqueous buffer, thermodynamic from solid, TBS/Ca2+ buffer w/o DMSO, N=1, read-out: Solubility S (thermodynamic)) was greater than 1500 µM.
